Measurements published in patent US10053468B2, “Heterocyclic compound” (TAKEDA PHARMACEUTICAL COMPANY LIMITED, priority 2013, dated 2018).
Read-outs that look alike come from different tables or passages of the source.

Legend:
RORγt [1] = target: T1, RORγt (Homo sapiens, UniProt P51449); test: RORγt binding test using fluorescent-labeled cholesterol (TR-FRET); conditions: read-out: Binding inhibitory rate of fluorescent-labeled cholesterol to RORγt at test compound 1 μM (%)
T1 sequence (P51449 1-497 isoform P51449-2): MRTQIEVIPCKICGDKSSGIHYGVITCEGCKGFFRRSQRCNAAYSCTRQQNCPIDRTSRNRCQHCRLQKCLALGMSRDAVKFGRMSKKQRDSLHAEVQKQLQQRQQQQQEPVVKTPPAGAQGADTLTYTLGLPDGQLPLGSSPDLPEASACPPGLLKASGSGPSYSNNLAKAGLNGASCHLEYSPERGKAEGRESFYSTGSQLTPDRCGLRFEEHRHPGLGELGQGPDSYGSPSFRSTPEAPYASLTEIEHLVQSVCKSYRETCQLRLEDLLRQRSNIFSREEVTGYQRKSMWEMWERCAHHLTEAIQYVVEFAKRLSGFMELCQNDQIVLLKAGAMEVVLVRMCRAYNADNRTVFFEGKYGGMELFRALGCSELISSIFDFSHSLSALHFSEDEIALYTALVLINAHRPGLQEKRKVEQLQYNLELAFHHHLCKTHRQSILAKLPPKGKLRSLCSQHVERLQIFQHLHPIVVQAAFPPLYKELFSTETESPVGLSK
Summary of the method: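 After 20 min at room temperature with His-tagged RORγt and BODIPY-cholesterol in pH 7.5 Tris buffer (NaCl, DTT, BSA), compound wells got terbium anti-His antibody for another 20 min. Time-resolved FRET was read with excitation 320 nm, emission 520 nm and a 100 µs delay.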

RORγt [2] = target: T1, RORγt; test: RORγt binding test using fluorescent-labeled synthetic ligand (TR-FRET); conditions: read-out: Binding inhibitory rate of fluorescent-labeled synthetic ligand to RORγt at test compound 1 μM (%)
Summary of the method: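 His-tagged RORγt (diluted to 240 nM) with compound, then fluorescent synthetic ligand (diluted to 12 μM), 20 min at room temperature, followed by Tb anti-His antibody (diluted to 8 nM), 20 min.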

RORγt [3] = target: T1, RORγt; test: Cofactor recruitment test (Alpha Screen, biotinylated SRC-1 peptide); assay type: biochemical; conditions: read-out: Signal value inhibitory rate at test compound 1 μM (%)
Procedure: Cofactor Recruitment Test
Cofactor recruitment test was performed by Alpha Screen (Histidine Detection Kit, PerkinElmer) method. First, a test compound was diluted with an assay buffer (50 mM Tris-HCl (pH 7.5), 50 mM KCl, 1 mM DTT, 0.1% BSA) and added to a 384 well plate by 5 μL. […] The mixture was stood in a dark place for 1 hr, and the signal value was measured by Envision (PerkinElmer).

RORγt [4] = target: T1, RORγt; test: Jurkat reporter test (human IL-17 ROR response element luciferase, RORγt vector); assay type: cell-based; conditions: read-out: Luminescence level inhibitory rate at test compound 3 μM (%)
Summary of the method: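 Luminescence (Bright-Glo, 10 min, RT) was measured after overnight compound treatment of electroporated Jurkat cells (1350 V, 10 ms interval, 3 pulses). The reaction medium was RPMI with 10% lipid-reduced FCS, 10 mM HEPES (pH 7.5) and 5 μM lovastatin.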

[5] = test compound 3 μM, Jurkat cells

Structure (SMILES) | inhibition at 1 µM (RORγt [1]) [%] | inhibition at 1 µM (RORγt [2]) [%] | inhibition at 1 µM (RORγt [3]) [%] | inhibition at 3 µM (RORγt [4]; [5]) [%] | inhibition at 3 µM (RORγt [4]; Jurkat) [%]
COc1ccc2c(c1)CCN(C(=O)Cc1nnc(C)o1)[C@H]2C(=O)Nc1cc(F)c(C(C)(C)C(=O)N2CCCC2)c(F)c1 [Example 106, (1R)-N-(3,5-difluoro-4-(2-methyl-1-oxo-1-(pyrrolidin-1-yl)propan-2-yl)phenyl)-6-methoxy-2-((5-methyl-1,3,4-oxadiazol-2-yl)acetyl)-1,2,3,4-tetrahydroisoquinoline-1-carboxamide] | 102 | 101 | 101 | 102 | 
COc1ccc2c(c1)CCN(C(=O)CC#N)[C@H]2C(=O)Nc1cc(F)c(C(C)(C)C(=O)N2CCCC2)c(F)c1 [Example 103, (1R)-2-(cyanoacetyl)-N-(3,5-difluoro-4-(2-methyl-1-oxo-1-(pyrrolidin-1-yl)propan-2-yl)phenyl)-6-methoxy-1,2,3,4-tetrahydroisoquinoline-1-carboxamide] | 104 | 101 | 101 | 102 | 
COCc1ccc2c(c1)CCN(C(=O)Cc1cc(O)no1)[C@H]2C(=O)Nc1cc(F)c([Si](C)(C)C)c(F)c1 [Example 121, (1R)-N-(3,5-difluoro-4-(trimethylsilyl)phenyl)-2-((3-hydroxy-1,2-oxazol-5-yl)acetyl)-6-(methoxymethyl)-1,2,3,4-tetrahydroisoquinoline-1-carboxamide] | 101 | 101 | 100 |  | 103
COc1ccc2c(c1)CCN(C(=O)[C@H]1CNC(=O)C1)[C@H]2C(=O)Nc1ccc(C(C)(C)C)c(F)c1 [Example 26, (1R)-N-(4-tert-butyl-3-fluorophenyl)-6-methoxy-2-(((3R)-5-oxopyrrolidin-3-yl)carbonyl)-1,2,3,4-tetrahydroisoquinoline-1-carboxamide] | 97.7 | 101 | 81.5 | 102 | 
COCC(C)(C)c1c(F)cc(NC(=O)[C@H]2c3ccc(OC)cc3CCN2C(=O)Cc2cc(O)no2)cc1F [Example 98, (1R)-N-(3,5-difluoro-4-(1-methoxy-2-methylpropan-2-yl)phenyl)-2-((3-hydroxy-1,2-oxazol-5-yl)acetyl)-6-methoxy-1,2,3,4-tetrahydroisoquinoline-1-carboxamide] | 99 | 102 | 96 | 102 | 
COc1ccc2c(c1)CCN(C(=O)Cc1cc(O)no1)[C@H]2C(=O)Nc1cc(F)c2c(c1)CCC2(C)C [Example 45, (1R)-N-(7-fluoro-1,1-dimethyl-2,3-dihydro-1H-inden-5-yl)-2-((3-hydroxy-1,2-oxazol-5-yl)acetyl)-6-methoxy-1,2,3,4-tetrahydroisoquinoline-1-carboxamide] | 103 | 102 | 76.9 | 99.6 | 
COc1ccc2c(n1)CCN(C(=O)Cc1cc(O)no1)[C@H]2C(=O)Nc1ccc(C(C)(C)C)c(F)c1 [Example 78, (5R)-N-(4-tert-butyl-3-fluorophenyl)-6-((3-hydroxy-1,2-oxazol-5-yl)acetyl)-2-methoxy-5,6,7,8-tetrahydro-1,6-naphthyridine-5-carboxamide] | 101 | 102 | 89 | 101 | 
CCOc1ccc2c(n1)CCN(C(=O)CCCC(=O)O)[C@H]2C(=O)Nc1cc(F)c([Si](C)(C)C)c(F)c1 [Example 129, 5-((5R)-5-((3,5-difluoro-4-(trimethylsilyl)phenyl)carbamoyl)-2-ethoxy-7,8-dihydro-1,6-naphthyridin-6(5H)-yl)-5-oxopentanoic acid] | 98 | 101 | 99 |  | 102
COCc1ccc2c(c1)CCN(C(=O)c1cc(O)no1)[C@H]2C(=O)Nc1cc(F)c2c(c1)CCC2(C)C [Example 133, (1R)-N-(7-fluoro-1,1-dimethyl-2,3-dihydro-1H-inden-5-yl)-2-((3-hydroxy-1,2-oxazol-5-yl)carbonyl)-6-(methoxymethyl)-1,2,3,4-tetrahydroisoquinoline-1-carboxamide] | 103 | 101 | 96 | 103 | 
CCOc1ccc2c(n1)CCN(C(=O)CCCC(=O)O)[C@H]2C(=O)Nc1ccc([Si](C)(C)C)c(F)c1 [Example 152, 5-((5R)-2-ethoxy-5-((3-fluoro-4-(trimethylsilyl)phenyl)carbamoyl)-7,8-dihydro-1,6-naphthyridin-6(5H)-yl)-5-oxopentanoic acid] | 102 | 101 | 97 |  | 103
CCOc1ccc2c(n1)CCN(C(=O)Cc1cc(O)no1)[C@H]2C(=O)Nc1ccc([Si](C)(C)C)c(F)c1 [Example 151, (5R)-2-ethoxy-N-(3-fluoro-4-(trimethylsilyl)phenyl)-6-((3-hydroxy-1,2-oxazol-5-yl)acetyl)-5,6,7,8-tetrahydro-1,6-naphthyridine-5-carboxamide] | 99 | 102 | 99 |  | 102
COCC(C)(C)c1ccc(NC(=O)[C@H]2c3ccc(OC)cc3CCN2C(=O)Cc2cc(O)no2)cc1F [Example 70, (1R)-N-(3-fluoro-4-(1-methoxy-2-methylpropan-2-yl)phenyl)-2-((3-hydroxy-1,2-oxazol-5-yl)acetyl)-6-methoxy-1,2,3,4-tetrahydroisoquinoline-1-carboxamide] | 102 | 102 | 82 | 99 | 
COc1ccc2c(n1)CCN(C(=O)Cc1cc(O)no1)[C@H]2C(=O)Nc1ccc([Si](C)(C)C)c(F)c1 [Example 80, (5R)-N-(3-fluoro-4-(trimethylsilyl)phenyl)-6-((3-hydroxy-1,2-oxazol-5-yl)acetyl)-2-methoxy-5,6,7,8-tetrahydro-1,6-naphthyridine-5-carboxamide] | 102 | 102 | 97 |  | 100
COCc1ccc2c(c1)CCN(C(=O)Cc1cc(O)no1)[C@H]2C(=O)Nc1cc(F)c2c(c1)CCC2(C)C [Example 169, (1R)-N-(7-fluoro-1,1-dimethyl-2,3-dihydro-1H-inden-5-yl)-2-((3-hydroxy-1,2-oxazol-5-yl)acetyl)-6-(methoxymethyl)-1,2,3,4-tetrahydroisoquinoline-1-carboxamide] | 102 | 102 | 93 | 102 | 
CCOc1ccc2c(c1)CCN(C(=O)CCCC(=O)O)[C@H]2C(=O)Nc1cc(F)c(C(C)(C)COCC(F)F)c(F)c1 [Example 153, 5-((1R)-1-((4-(1-(2,2-difluoroethoxy)-2-methylpropan-2-yl)-3,5-difluorophenyl)carbamoyl)-6-ethoxy-3,4-dihydroisoquinolin-2 (1H)-yl)-5-oxopentanoic acid] | 100 | 102 | 84 | 97 | 
COc1ccc2c(c1)CCN(C(=O)c1cc(O)no1)[C@H]2C(=O)Nc1ccc([Si](C)(C)C)c(F)c1 [Example 7, (1R)-N-(3-fluoro-4-(trimethylsilyl)phenyl)-2-((3-hydroxy-1,2-oxazol-5-yl)carbonyl)-6-methoxy-1,2,3,4-tetrahydroisoquinoline-1-carboxamide] | 102 | 101 | 92.8 |  | 101
COc1ccc2c(c1)CCN(C(=O)CC(F)(F)F)[C@H]2C(=O)Nc1cc(F)c(C(C)(C)C(=O)N2CCCC2)c(F)c1 [Example 104, (1R)-N-(3,5-difluoro-4-(2-methyl-1-oxo-1-(pyrrolidin-1-yl)propan-2-yl)phenyl)-6-methoxy-2-(3,3,3-trifluoropropanoyl)-1,2,3,4-tetrahydroisoquinoline-1-carboxamide] | 102 | 101 | 101 | 102 | 
